In brackets after ≈: the same amount, converted by molar mass. Where two headings read alike, the source gives them in different places.
Key:
[1] = system: rabbit aortic rings precontracted with phenylephrine; assay: Vessel-relaxing action in vitro on isolated aortic rings precontracted with phenylephrine; settings: Oryctolagus cuniculus, rabbit aorta rings, phenylephrine contraction
Method: Vessel-relaxing Action in vitro
Rings 1.5 mm wide of an aorta isolated from a rabbit are introduced individually, under pretension, in 5 ml organ baths with Krebs-Henseleit solution warmed to 37° C. and gassed with carbogen. The contraction force is amplified and digitalized and recorded in parallel on a line recorder. To generate a contraction, phenylephrine is added cumulatively to the bath in an increasing concentration.
(§1) After several control cycles, the substance to be investigated is investigated in each further pass in each case in an increasing dosage, and a comparison is made with the level of the contraction achieved in the last preliminary pass. The concentration necessary to reduce the level of the control value by 50% (IC50) is calculated from this. The standard application volume is 5 μl.
as §1, with “this.” for “this. The standard application volume is 5 μl.”
The standard application volume is 5 μl.

[2] = target: T1, soluble guanylate cyclase (Sus scrofa, UniProt A0A4X1U7N1+A0ACM8Q7I6); assay: Stimulation of soluble guanylate cyclase in primary endothelial cells (intracellular cGMP, radioimmunological); assay type: cell-based; settings: 10 min, test substance 1 μM, 10-minute incubation, primary pig aortic endothelial cells, with or without SNP 1 μM (not stated which), read-out: % increase in cGMP
T1 construct: endogenous in cells; host or cells: primary endothelial cells from pig aorta
T1 sequence (A0A4X1U7N1 1-619): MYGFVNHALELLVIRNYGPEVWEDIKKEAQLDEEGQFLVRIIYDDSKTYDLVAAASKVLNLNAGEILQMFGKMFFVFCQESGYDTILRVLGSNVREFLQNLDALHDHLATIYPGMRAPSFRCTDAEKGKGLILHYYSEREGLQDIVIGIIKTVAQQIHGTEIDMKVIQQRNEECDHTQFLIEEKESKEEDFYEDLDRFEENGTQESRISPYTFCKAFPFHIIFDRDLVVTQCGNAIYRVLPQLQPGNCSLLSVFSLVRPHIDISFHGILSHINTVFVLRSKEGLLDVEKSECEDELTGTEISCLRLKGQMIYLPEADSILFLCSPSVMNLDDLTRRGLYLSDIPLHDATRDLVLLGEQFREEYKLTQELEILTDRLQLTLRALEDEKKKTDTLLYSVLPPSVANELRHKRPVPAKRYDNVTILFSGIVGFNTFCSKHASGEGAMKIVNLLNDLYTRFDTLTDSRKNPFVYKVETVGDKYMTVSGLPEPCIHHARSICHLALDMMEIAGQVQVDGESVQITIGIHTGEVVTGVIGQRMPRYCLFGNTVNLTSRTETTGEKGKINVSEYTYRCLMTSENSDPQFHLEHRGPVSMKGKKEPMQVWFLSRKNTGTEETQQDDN
T1 sequence (A0ACM8Q7I6 1-688): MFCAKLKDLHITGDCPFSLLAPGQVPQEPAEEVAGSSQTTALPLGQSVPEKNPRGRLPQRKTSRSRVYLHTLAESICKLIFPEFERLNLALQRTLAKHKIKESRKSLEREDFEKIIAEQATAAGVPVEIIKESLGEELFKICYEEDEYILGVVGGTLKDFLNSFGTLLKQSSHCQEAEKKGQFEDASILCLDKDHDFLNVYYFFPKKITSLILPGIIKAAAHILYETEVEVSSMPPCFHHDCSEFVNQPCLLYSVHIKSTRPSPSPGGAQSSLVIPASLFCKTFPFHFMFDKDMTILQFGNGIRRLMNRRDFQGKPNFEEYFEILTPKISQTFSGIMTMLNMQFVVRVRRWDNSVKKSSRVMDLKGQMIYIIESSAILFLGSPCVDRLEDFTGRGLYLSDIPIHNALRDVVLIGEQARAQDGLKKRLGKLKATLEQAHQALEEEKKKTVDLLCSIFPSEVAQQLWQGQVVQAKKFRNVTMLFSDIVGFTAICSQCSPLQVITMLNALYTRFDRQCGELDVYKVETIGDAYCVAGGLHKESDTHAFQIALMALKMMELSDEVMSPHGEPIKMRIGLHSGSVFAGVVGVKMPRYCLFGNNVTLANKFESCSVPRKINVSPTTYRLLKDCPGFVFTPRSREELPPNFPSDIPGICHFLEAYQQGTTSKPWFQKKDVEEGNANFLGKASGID
Method: Stimulation of Soluble Guanylate Cyclase in Primary Endothelial Cells
(§2) Primary endothelial cells were isolated from pig aortas by treatment with collagenase solution. The cells were then cultured in a culture medium until confluence was reached. For the investigations, the cells were subjected to passaging, sown in cell culture plates and subcultured until confluence was reached. To stimulate the endothelial guanylate cyclase, the culture medium was suctioned off and the cells were washed once with Ringer's solution and incubated in stimulation buffer with or without an NO donor (sodium nitroprusside, SNP, 1 μM). Thereafter, the test substances (final concentration 1 μM) were pipetted onto the cells. At the end of the 10-minute incubation period, the buffered solution was suctioned off and the cells were lysed at −20° C. for 16 hours. The intracellular cGMP was then determined radioimmunologically.
as §2, with “sucked” for “suctioned”
as §2, with “without” for “without an”, “buffer” for “buffered”

[3] = system: human platelets stimulated with collagen; assay: Inhibition of platelet aggregation in vitro (collagen-induced, platelet-rich plasma); assay type: cell-based; settings: human PRP, 37° C.
Method: Inhibition of Platelet Aggregation in vitro
To determine the platelet aggregation-inhibiting action, blood from healthy subjects of both sexes was used. One part of 3.8% strength aqueous sodium citrate solution was admixed to 9 parts of blood as an anticoagulant. Platelet-richer citrate plasma (PRP) is obtained from this blood by means of centrifugation.
(§3) For the investigations, 445 μl of PRP and 5 μl of the active compound solution were preincubated in a water-bath at 37° C. The platelet aggregation was then determined in an aggregometer at 37° C. using the turbidometric method. For this, 50 μl of collagen, an aggregation-inducing agent, were added to the preincubated sample and the change in optical density was recorded. For the quantitative evaluation, the maximum aggregation response was determined and the percentage inhibition compared with the control was calculated therefrom.
Inhibition of Platelet Pggregation in vitro
as §3, with “For these investigations, 445” for “For the investigations, 445”

## OCc1cccc(-c2nn(Cc3ccccc3F)c3ccccc23)n1 [II-62]
[1]; embodiment II
  IC50: 13 µM
other
  melting point: 99 °C

## Cc1nc(-c2nn(Cc3ccccc3F)c3ccccc23)oc1CN1C(=O)c2ccccc2C1=O [Process Example 11, 2-[1-(2-fluorobenzyl)-indazole-3-yl]-4-methyl-5-(N-phthalimidomethyl)-oxazole]
other
  melting point: 175 to 177 °C

## N#Cc1ccccc1Cn1nc(-c2ccc(CO)o2)c2ccccc21 [IV-136, 1-(^2-Cyanobenzyl)-3-(5-hydroxymethylfuran-2-yl)-indazole]
[2]; embodiment IV
  activation at 1 µM: > 1000%
[1]; iv, embodiment IV
  IC50: 7.2 µM
[3]; embodiment IV
  IC50: 30 µg/mL (≈ 91.1 µM)

## N#Cc1ccccc1Cn1nc(-c2ncccn2)c2ccccc21 [II-41]
[2]; embodiment II
  activation at 1 µM: 557%
[1]; embodiment II
  IC50: 13 µM

## Nc1nccc(-c2nn(Cc3ccccc3)c3ccccc23)n1 [II-53]
[2]; embodiment II
  activation at 1 µM: 428%
[1]; embodiment II
  IC50: 18 µM

## Clc1nccc(-c2nn(Cc3ccccc3)c3ccccc23)n1 [II-50]
[2]; embodiment II
  activation at 1 µM: 116%
[1]; embodiment II
  IC50: > 31 µM

## CCOC(=O)c1csc(-c2nn(Cc3ccccc3)c3ccccc23)n1 [III-72, Ethyl 2-(1-benzyl-indazol-3-yl)-thiazole-4-carboxylate]
[3]; embodiment III
  IC50: 1 µg/mL (≈ 2.75 µM)

## OCc1cnc(-c2nn(Cc3ccccc3)c3ccccc23)o1 [III-71, 1-Benzyl-3-(5-hydroxymethyl-oxazol-2-yl)-indazole]
[2]; embodiment III
  activation at 1 µM: 315%
[1]; embodiment III
  IC50: 5 µM
[3]; embodiment III
  IC50: 50 µg/mL (≈ 164 µM)

From patent US6410740B1, “Heterocyclylmethyl-substituted pyrazol derivatives” (Bayer Aktiengesellschaft, priority 1996, dated 2002)
